A word on the Ki: it is the dissociation constant of the complex between target and ligand, obtained from inhibition or displacement.

SMILES strings stand for the structures. Like-named read-outs stand apart in the source and are kept apart here.

Test [1] concerns the target T1, xanthine oxidase (XO) (Bos taurus, UniProt P80457). The test is described as follows: Inhibition of O2− radical generated by XO (NBT). Format: biochemical, bovine. As to conditions: XO 0.7 μM. As to the method:
The O2^− radicals generated during the catalytic process of XO could also be used to assess the antioxidant activity of ECG. The XO (0.70 μM) and different concentrations of ECG were mixed in Tris–HCl buffer and incubated at 37 °C for 30 min. Then, NBT (55.0 μM) and xanthine were added to the samples, respectively, and the absorbance of the mixture at 560 nm was recorded. A small amount of Triton X−100 (0.2%, v/v) was added for solubilization and the control group was equal volume ethanol.

For test [2], the target named is T1, xanthine oxidase (XO). The test is described as follows: Kinetic analysis of enzyme-catalyzed reaction (Lineweaver–Burk). Format: biochemical, bovine. The text has this:
The same determination method of enzyme activity was used to conduct the inhibition kinetics analysis of ECG on XO. In the presence of a series of different concentrations of ECG, the concentration of XO or xanthine was changed to determine the catalytic rate, and then the inhibition type was ascertained by the Lineweaver-Burk plots in double reciprocal form. […] Km, Ki, and α are on behalf of the Michaelis-Menten constant, dissociation constant, and apparent coefficient, respectively.

The test system of another test is polyphenoloxidase. Also on record: method as in earlier work. As to conditions: ref 41 (Sae-Leaw et al.); cited from earlier work.
Test [3] concerns the target T1, xanthine oxidase (XO). The test is described as follows: Fluorescence titration experiments (quenching, binding, thermodynamics, 3D fluorescence). Also on record: species or system bovine. The protocol: At three experimental temperatures (25, 31, and 37 °C), XO (1.0 μM) diluted in the Tris–HCl solution was placed in a 1.0 cm cuvette, and then ECG (0–30.0 μM) was added into XO solution successively to conduct the fluorescence titration experiments. After each addition, the fluorescence spectra of the mixed solutions within 300–500 nm were scanned at an excitation wavelength of 280 nm using a fluorescence photometer (F–7000, Hitachi, Japan). The width of the excitation and emission slit was 2.5 nm, respectively. Similarly, the synchronous fluorescence spectra of XO titrated by ECG were measured by setting the difference between excitation and emission wavelength (Δλem) to 15 and 60 nm, respectively. The free XO solution and a mixed sample of XO and ECG were prepared, and then the three-dimensional (3D) fluorescence spectra of the samples were determined; the scanning ranges of both excitation and emission wavelength were 200–600 nm. All fluorescence data were corrected to subtract the internal filtering effect by the following equation [34]:(4) Fc=Fme^(A1+A2)/2 where Fc and Fm represent the […] fluorescence intensity values, respectively; A1 and A2 are the absorbances of ECG at the excitation and emission wavelengths, respectively.
The changes of fluorescence spectra can reflect the binding characteristics between inhibitor and enzyme. […] The specific quenching mechanism of ECG on XO was determined by the relationship between quenching constant (KSV) and temperature, and the values of KSV and Kq (the quenching rate constant) were calculated by the well-known Stern–Volmer equation [44]. (6) F0/F=1+KSVQ=1+Kqτ0Q where F and F0 represent the fluorescence intensity values of XO with and without ECG, respectively; Q is the concentration of ECG; the value of the average fluorescence lifetime of fluorophore for biomacromolecules (τ0) is 10^−8 s. […] Furthermore, the binding constant (Ka) and the number of binding sites (n) were calculated through the following formula:(7) logF0−F/F=nlogKa−nlog1/Qt−(F0−F)Pt/F0 where [Qt] and [Pt] represent the concentrations of ECG and XO, respectively. […] The n values were close to 1, reflecting that XO had only one class of binding sites for ECG, which was consistent with the conclusions of enzyme kinetics analysis.
The values of thermodynamic parameters of the binding process between ECG and XO, such as entropy change (ΔS°), enthalpy change (ΔH°), and free energy change (ΔG°), were obtained by the van ‘t Hoff equation:
(9) ΔG=ΔH°−TΔS° where R is the gas constant (8.314 J mol^−1 K^−1), and T is the temperatures of fluorescence titration experiments (25, 31, and 37 °C). […] A similar study reported that the formation of the ECG–α-amylase complex was mainly driven by van der Waals and hydrogen bonds.

Another test concerns XO. As to conditions: cited from earlier work.
The target in test [4] is T1, xanthine oxidase (XO). The test is described as follows: XO activity assay (uric acid formation, absorbance at 293 nm). The format is biochemical, bovine.
For test [5], the target named is T1, xanthine oxidase (XO). Nature of the test: Fluorescence microscopy imaging of XO. Also on record: species or system bovine. As to conditions: XO 1.0 μM; ECG 40.0 μM. The protocol: The free XO solution and the mixture of ECG and XO were prepared and incubated for 1h at room temperature. The appropriate amount of samples was placed on a microscope slide, and then the structural changes of XO induced by ECG were observed through a fluorescent inverted microscope with an excitation light of FBW (IX73, Olympus, Japan).

In test [6] the target is T1, xanthine oxidase (XO). Nature of the test: CD spectra: secondary structure of XO. Also on record: species or system bovine. The protocol: The CD spectrometer (Bio−Logic MOS 450, Claix, France) was used to determine the CD spectra to analyze the effects of ECG on the secondary structure of XO. The free XO (1.0 μM) and its mixed solutions with different molar ratios ([ECG]/[XO], 0:1, 10:1, 20:1 and 40:1) were prepared, and then the CD spectra of the samples in the range of 190−250 nm were measured in a nitrogen stream. The specific secondary structure contents were analyzed by our previous study.

Test [7] can be described thus: O2− radical scavenging activity assay (PMS–NADH system, NBT). As to conditions: ECG 45.0 μM. The protocol:
NBT could be reduced to blue formazan by O2^− radical produced by the PMS–NADH system; thus, this method was used to evaluate the O2^− radical scavenging activity of ECG [33]. The reaction solutions were prepared by mixing NBT (55.0 μM), NADH (0.27 mM), and different concentrations of ECG, and then 0.2 mL PMS (0.155 mM) was added to initiate the reaction. After the samples were incubated for 15 min, the absorbance at 560 nm was measured. Ethanol was used instead of ECG as the blank group, and the values of decreasing percentage in absorbance were calculated to analyze the scavenging activity of ECG.

Test [8] is described as follows: DPPH radical scavenging activity assay. As to conditions: ECG 15 μM. The protocol:
The DPPH free radical scavenging activity of ECG was tested according to Aalim et al. with slight modification. DPPH was dissolved in ethanol, and then different concentrations of ECG were added to prepare a series of samples. The mixed solutions were protected from light and reacted for 30 min. The absorbance of the samples at 517 nm was determined by an enzyme-labeled instrument (Varioskan LUX, Thermo Fisher Scientific, Waltham, MA, USA). An equal volume of ethanol was used as a control. The free radical scavenging activity of ECG was assessed by the change of percentage in absorbance.
Background: Loss of DPPH colour is used to gauge radical scavenging.

Where [9] appears, read: read-out: IC50 for inhibiting XO activity.
Where [10] appears, read: previous study of the authors, read-out: IC50 for inhibiting XO activity.

T1 sequence (P80457 whole entry): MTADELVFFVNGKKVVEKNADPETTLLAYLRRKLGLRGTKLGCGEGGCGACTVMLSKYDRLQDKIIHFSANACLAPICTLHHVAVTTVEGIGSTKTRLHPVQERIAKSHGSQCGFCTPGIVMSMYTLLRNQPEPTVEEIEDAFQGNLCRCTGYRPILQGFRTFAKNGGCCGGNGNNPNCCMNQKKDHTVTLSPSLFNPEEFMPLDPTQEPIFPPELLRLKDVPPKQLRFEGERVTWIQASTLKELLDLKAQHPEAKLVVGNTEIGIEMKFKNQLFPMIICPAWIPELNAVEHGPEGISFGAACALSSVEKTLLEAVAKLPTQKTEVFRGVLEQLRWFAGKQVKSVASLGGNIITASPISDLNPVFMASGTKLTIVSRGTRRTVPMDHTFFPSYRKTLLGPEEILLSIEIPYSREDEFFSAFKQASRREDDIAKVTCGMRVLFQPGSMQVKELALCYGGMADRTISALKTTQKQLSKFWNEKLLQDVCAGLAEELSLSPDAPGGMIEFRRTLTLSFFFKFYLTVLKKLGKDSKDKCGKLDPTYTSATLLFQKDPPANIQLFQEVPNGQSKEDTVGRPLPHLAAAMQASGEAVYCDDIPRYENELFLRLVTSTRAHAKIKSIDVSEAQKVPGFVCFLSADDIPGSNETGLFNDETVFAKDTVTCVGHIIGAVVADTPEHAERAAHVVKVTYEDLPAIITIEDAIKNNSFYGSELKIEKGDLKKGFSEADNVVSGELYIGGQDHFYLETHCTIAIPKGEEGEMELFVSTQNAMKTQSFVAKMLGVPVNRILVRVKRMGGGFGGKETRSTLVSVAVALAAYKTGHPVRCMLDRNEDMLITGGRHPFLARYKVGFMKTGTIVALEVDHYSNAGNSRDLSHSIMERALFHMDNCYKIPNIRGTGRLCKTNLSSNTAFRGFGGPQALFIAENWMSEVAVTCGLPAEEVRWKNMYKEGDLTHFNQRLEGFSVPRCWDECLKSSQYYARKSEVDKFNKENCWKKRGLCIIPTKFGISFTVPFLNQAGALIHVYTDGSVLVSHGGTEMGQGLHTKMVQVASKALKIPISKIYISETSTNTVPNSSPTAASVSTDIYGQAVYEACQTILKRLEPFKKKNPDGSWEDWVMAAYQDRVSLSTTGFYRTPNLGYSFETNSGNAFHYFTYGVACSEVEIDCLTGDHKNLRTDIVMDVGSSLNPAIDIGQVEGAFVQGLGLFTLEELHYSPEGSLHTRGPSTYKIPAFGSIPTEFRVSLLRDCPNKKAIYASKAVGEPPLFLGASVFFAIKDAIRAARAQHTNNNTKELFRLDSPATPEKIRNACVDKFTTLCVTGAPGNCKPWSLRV

For `O=C(O[C@@H]1Cc2c(O)cc(O)cc2O[C@@H]1c1ccc(O)c(O)c1)c1cc(O)c(O)c(O)c1` [ECG, Epicatechin gallate], the IC50 on xanthine oxidase (XO) [1] (read-out: dose at which relative inhibition rate of production of O2− radical reached 50%) was 18.5 µM; in the test on XO (ref 12 (Yuan et al.), read-out: IC50 inhibiting XO), 0.26 µM; on xanthine oxidase (XO) [4] (pH 7.4, XO 0.075 μM, xanthine 50.0 μM, read-out: IC50 for inhibiting XO activity), 19.3 ± 0.45 µM. Further, on xanthine oxidase (XO) [1] (xanthine 0.1, 0.2, 0.5 mM), the “relative inhibition rate of generation of O2− radical from XO catalysis (final plateau)” value was found to be 90%. In addition, the inhibition type result at xanthine oxidase (XO) [2] (Lineweaver–Burk plots) is recorded as “mixed inhibitor”. On xanthine oxidase (XO) [2] (XO−xanthine complex), this compound yielded a αKi of 82.4 ± 0.70 µM. Besides, the Ki on xanthine oxidase (XO) [2] (dissociation constant, free XO) was determined as 5.27 ± 0.24 µM. The reversibility of inhibition entry on xanthine oxidase (XO) [2] (plots of ν vs. [XO]) is listed as “reversibly inhibited”. Also, in the test with polyphenoloxidase, the “inhibition type on polyphenoloxidase” value is reported as “mixed inhibitory effect”. Moreover, the “n values” on xanthine oxidase (XO) [3] (25, 31 and 37 °C) was around 1. For the same compound, the “Kq (quenching rate constant)” value at xanthine oxidase (XO) [3] (25, 31 and 37 °C, compared with maximum scattering collision rate constant) is above 2e+10 M⁻¹ s⁻¹. Moreover, the Kd on xanthine oxidase (XO) [3] (25, 31 and 37 °C, read-out: binding constant Ka, magnitude) was around 100 µM; at xanthine oxidase (XO) [3] (298 K, read-out: Ka (binding constant) (converted)), 54.9 µM; on xanthine oxidase (XO) [3] (304 K, read-out: Ka (binding constant) (converted)), 66.2 µM; at xanthine oxidase (XO) [3] (310 K, read-out: Ka (binding constant) (converted)) it was 81.3 µM. Moreover, the Ksv at xanthine oxidase (XO) [3] (298 K) is given as 1.76 ± 0.02 ×10^4 L mol^−1; on xanthine oxidase (XO) [3] (304 K) it was 1.32 ± 0.03 ×10^4 L mol^−1; on xanthine oxidase (XO) [3] (310 K), 1.15 ± 0.01 ×10^4 L mol^−1. In addition, the “n (number of binding sites)” value stood at 0.91 ± 0.01 at xanthine oxidase (XO) [3] (298 K), 0.95 ± 0.02 on xanthine oxidase (XO) [3] (304 K) and 0.87 ± 0.02 on xanthine oxidase (XO) [3] (310 K). The “ΔG°” value was -5.813 ± 0.0956 kcal/mol at xanthine oxidase (XO) [3] (298 K), -5.81 ± 0.0837 kcal/mol on xanthine oxidase (XO) [3] (304 K) and -5.805 ± 0.0669 kcal/mol at xanthine oxidase (XO) [3] (310 K). For the same compound, the “decrease of 3D fluorescence intensity of XO peak 1 (λex/λem = 280/340 nm)” value on xanthine oxidase (XO) [3] (XO 1.0 μM, ECG 15.0 μM) is 34.36%. At xanthine oxidase (XO) [3] (XO 1.0 μM, ECG 15.0 μM), the “decrease of 3D fluorescence intensity of XO peak 2 (λex/λem = 230/335 nm)” value was 47.59%. Besides, the “ΔH°” value on xanthine oxidase (XO) [3] (van 't Hoff, 298–310 K) was -5.987 ± 0.0478 kcal/mol. At xanthine oxidase (XO) [3] (van 't Hoff, 298–310 K), the “ΔS°” value is given as −2.44 ± 0.07 J mol^−1 K^−1. The “activity of XO at high ECG concentration” value on xanthine oxidase (XO) [4] (ECG 300 μM) is reported as “almost completely inhibited”. The “average area of green bright spots of XO with ECG” value on xanthine oxidase (XO) [5] is 172.31 μm^2. In addition, the “Random Coil content of XO” value at xanthine oxidase (XO) [6] ([ECG]:[XO] 10:1) stood at 25.12 ± 0.69%; on xanthine oxidase (XO) [6] ([ECG]:[XO] 20:1), 24.03 ± 0.31%; at xanthine oxidase (XO) [6] ([ECG]:[XO] 40:1) it was 22.51 ± 0.24%. For the same compound, the “α-Helix content of XO” value at xanthine oxidase (XO) [6] ([ECG]:[XO] 10:1) was found to be 10.83 ± 0.51%; at xanthine oxidase (XO) [6] ([ECG]:[XO] 20:1), 10.96 ± 0.62%; at xanthine oxidase (XO) [6] ([ECG]:[XO] 40:1) it was 11.83 ± 0.93%. The “β-Sheet content of XO” value at xanthine oxidase (XO) [6] ([ECG]:[XO] 10:1) is reported as 42.51 ± 0.41%; at xanthine oxidase (XO) [6] ([ECG]:[XO] 20:1), 43.41 ± 0.74%; at xanthine oxidase (XO) [6] ([ECG]:[XO] 40:1) it was 45.02 ± 0.22%. For the same compound, the “β-Turn content of XO” value at xanthine oxidase (XO) [6] ([ECG]:[XO] 10:1) stood at 21.65 ± 0.94%; on xanthine oxidase (XO) [6] ([ECG]:[XO] 20:1), 21.59 ± 0.13%; at xanthine oxidase (XO) [6] ([ECG]:[XO] 40:1), 21.39 ± 0.25%. Further, in test [7], the “scavenging rate of O2− radical generated by PMS–NADH system” value is listed as 55.64%. For the same compound, in test [8], the DPPH radical scavenged was determined as 90%.

In the case of `O=C(O)/C=C/c1ccc(O)c(O)c1` [caffeic acid], the IC50 in the test with XO (setting [9]) was 7160 µM.

Regarding `O=C(/C=C/c1ccc(O)c(O)c1)O[C@@H]1C[C@](O)(C(=O)O)C[C@@H](O)[C@H]1O` [chlorogenic acid], in the test on XO (setting [9]), the IC50 is 6490 µM.

For the compound `O=c1c(O)c(-c2ccc(O)cc2)oc2cc(O)cc(O)c12` [kaempferol], the “inhibition manner on XO” value in the test on XO (previous study of the authors) is reported as “reversibly inhibited XO activity in a competitive manner”.

In the case of `O=c1c(O)c(-c2cc(O)c(O)c(O)c2)oc2cc(O)cc(O)c12` [myricetin], the IC50 in the test with XO (setting [10]) is 8.66 µM.

Take `O=c1c(O)c(-c2ccc(O)c(O)c2)oc2cc(O)cc(O)c12` [quercetin]: the IC50 in the test with XO (setting [10]) was 7.23 µM.

The record behind these values is paper PMC8464939, “Epicatechin Gallate as Xanthine Oxidase Inhibitor: Inhibitory Kinetics, Binding Characteristics, Synergistic Inhibition, and Action Mechanism” (Foods, 2021).
